Results published in the NIST ThermoML archive (doi:10.1021/acs.jced.8b00132).
Values joined by “and” are separate entries in the source; they are usually repeats but may differ in a detail not shown here. Identical values can stand only once. ± gives the expanded uncertainty stated by the source.

O=C(C(F)(F)C(F)(F)F)C(F)(C(F)(F)F)C(F)(F)F [dodecafluoro-2-methylpentan-3-one]
Conditions | thermal conductivity
333.01 K, 108 kPa, Liquid, transient hot wire | 0.05128 ± 0.0011 W/m/K and 0.05126 ± 0.0011 W/m/K
333.21 K, 69192 kPa, Liquid, transient hot wire | 0.07561 ± 0.0015 W/m/K
333.22 K, 69183 kPa, Liquid, transient hot wire | 0.07544 ± 0.0015 W/m/K
333.25 K, 28069 kPa, Liquid, transient hot wire | 0.06356 ± 0.0013 W/m/K
333.26 K, 28068 kPa, Liquid, transient hot wire | 0.06353 ± 0.0013 W/m/K
333.28 K, 57706 kPa, Liquid, transient hot wire | 0.07259 ± 0.0015 W/m/K
333.29 K, 57707 kPa, Liquid, transient hot wire | 0.07259 ± 0.0015 W/m/K
333.34 K, 3947 kPa, Liquid, transient hot wire | 0.05333 ± 0.0011 W/m/K
333.35 K, 3945 kPa, Liquid, transient hot wire | 0.0533 ± 0.0011 W/m/K
333.35 K, 20435 kPa, Liquid, transient hot wire | 0.06088 ± 0.0013 W/m/K
333.36 K, 20438 kPa, Liquid, transient hot wire | 0.06085 ± 0.0013 W/m/K
333.37 K, 45549 kPa, Liquid, transient hot wire | 0.06924 ± 0.0014 W/m/K
333.39 K, 45558 kPa, Liquid, transient hot wire | 0.06943 ± 0.0014 W/m/K
333.46 K, 14103 kPa, Liquid, transient hot wire | 0.05826 ± 0.0012 W/m/K
333.47 K, 14107 kPa, Liquid, transient hot wire | 0.05827 ± 0.0012 W/m/K
333.47 K, 36549 kPa, Liquid, transient hot wire | 0.06656 ± 0.0014 W/m/K
333.48 K, 36550 kPa, Liquid, transient hot wire | 0.0665 ± 0.0014 W/m/K
333.58 K, 8568 kPa, Liquid, transient hot wire | 0.0556 ± 0.0011 W/m/K
333.58 K, 8574 kPa, Liquid, transient hot wire | 0.05562 ± 0.0011 W/m/K
333.67 K, 231 kPa, Liquid, transient hot wire | 0.05113 ± 0.0011 W/m/K
333.67 K, 232 kPa, Liquid, transient hot wire | 0.05114 ± 0.0011 W/m/K
333.7 K, 108 kPa, Liquid, transient hot wire | 0.05109 ± 0.0011 W/m/K
333.71 K, 108 kPa, Liquid, transient hot wire | 0.051 ± 0.0011 W/m/K
341.75 K, 117 kPa, Gas, transient hot wire | 0.01428 ± 0.00089 W/m/K
341.75 K, 153 kPa, Gas, transient hot wire | 0.01409 ± 0.00088 W/m/K
341.8 K, 117 kPa, Gas, transient hot wire | 0.01432 ± 0.00089 W/m/K
341.81 K, 154 kPa, Gas, transient hot wire | 0.01416 ± 0.00088 W/m/K
341.86 K, 61 kPa, Gas, transient hot wire | 0.01468 ± 0.00091 W/m/K
341.91 K, 62 kPa, Gas, transient hot wire | 0.01468 ± 0.00091 W/m/K
342.04 K, 153 kPa, Gas, transient hot wire | 0.01411 ± 0.00088 W/m/K
342.05 K, 117 kPa, Gas, transient hot wire | 0.01436 ± 0.00089 W/m/K
342.11 K, 116 kPa, Gas, transient hot wire | 0.01434 ± 0.00089 W/m/K
342.11 K, 153 kPa, Gas, transient hot wire | 0.0142 ± 0.00089 W/m/K
342.19 K, 61 kPa, Gas, transient hot wire | 0.01474 ± 0.00092 W/m/K
342.23 K, 61 kPa, Gas, transient hot wire | 0.01466 ± 0.00091 W/m/K
342.38 K, 153 kPa, Gas, transient hot wire | 0.0142 ± 0.00091 W/m/K
342.39 K, 115 kPa, Gas, transient hot wire | 0.01437 ± 0.00089 W/m/K
342.44 K, 116 kPa, Gas, transient hot wire | 0.01444 ± 0.0009 W/m/K
342.44 K, 153 kPa, Gas, transient hot wire | 0.01429 ± 0.00092 W/m/K
342.56 K, 60 kPa, Gas, transient hot wire | 0.01477 ± 0.00092 W/m/K
342.59 K, 61 kPa, Gas, transient hot wire | 0.01463 ± 0.00091 W/m/K
342.74 K, 153 kPa, Gas, transient hot wire | 0.01422 ± 0.00093 W/m/K
342.76 K, 115 kPa, Gas, transient hot wire | 0.0144 ± 0.0009 W/m/K
342.8 K, 153 kPa, Gas, transient hot wire | 0.01428 ± 0.00093 W/m/K
342.81 K, 116 kPa, Gas, transient hot wire | 0.01448 ± 0.0009 W/m/K
342.95 K, 60 kPa, Gas, transient hot wire | 0.01472 ± 0.00091 W/m/K
342.98 K, 61 kPa, Gas, transient hot wire | 0.01475 ± 0.00092 W/m/K
343.11 K, 153 kPa, Gas, transient hot wire | 0.01428 ± 0.00089 W/m/K
343.15 K, 116 kPa, Gas, transient hot wire | 0.01455 ± 0.0009 W/m/K
343.18 K, 153 kPa, Gas, transient hot wire | 0.01436 ± 0.00089 W/m/K
343.2 K, 116 kPa, Gas, transient hot wire | 0.0145 ± 0.0009 W/m/K
343.36 K, 60 kPa, Gas, transient hot wire | 0.0147 ± 0.00092 W/m/K
343.39 K, 61 kPa, Gas, transient hot wire | 0.01474 ± 0.00092 W/m/K
343.88 K, 192 kPa, Gas, hot wire | 0.01563 ± 0.00078 W/m/K
343.89 K, 192 kPa, Gas, hot wire | 0.01557 ± 0.00076 W/m/K
343.9 K, 170 kPa, Gas, hot wire | 0.01524 ± 0.00072 W/m/K and 0.0152 ± 0.00072 W/m/K
343.91 K, 134 kPa, Gas, hot wire | 0.01511 ± 0.00072 W/m/K and 0.01509 ± 0.00072 W/m/K
343.94 K, 82 kPa, Gas, hot wire | 0.0148 ± 0.0007 W/m/K and 0.01481 ± 0.0007 W/m/K
343.99 K, 26 kPa, Gas, hot wire | 0.01441 ± 0.00068 W/m/K
344 K, 26 kPa, Gas, hot wire | 0.01439 ± 0.00068 W/m/K
344.02 K, 192 kPa, Gas, hot wire | 0.01569 ± 0.00078 W/m/K
344.03 K, 192 kPa, Gas, hot wire | 0.01571 ± 0.00078 W/m/K
344.04 K, 170 kPa, Gas, hot wire | 0.01532 ± 0.00073 W/m/K
344.06 K, 134 kPa, Gas, hot wire | 0.01505 ± 0.00071 W/m/K
344.07 K, 134 kPa, Gas, hot wire | 0.01503 ± 0.00071 W/m/K
344.1 K, 82 kPa, Gas, hot wire | 0.01476 ± 0.0007 W/m/K
344.1 K, 83 kPa, Gas, hot wire | 0.01479 ± 0.0007 W/m/K
344.14 K, 26 kPa, Gas, hot wire | 0.01446 ± 0.00068 W/m/K and 0.01445 ± 0.00068 W/m/K
344.17 K, 191 kPa, Gas, hot wire | 0.01575 ± 0.00078 W/m/K and 0.01573 ± 0.00078 W/m/K
344.19 K, 169 kPa, Gas, hot wire | 0.01545 ± 0.00074 W/m/K and 0.01542 ± 0.00074 W/m/K
344.21 K, 133 kPa, Gas, hot wire | 0.01513 ± 0.00072 W/m/K
344.25 K, 83 kPa, Gas, hot wire | 0.0148 ± 0.0007 W/m/K
344.26 K, 83 kPa, Gas, hot wire | 0.01479 ± 0.0007 W/m/K
344.31 K, 26 kPa, Gas, hot wire | 0.01448 ± 0.00068 W/m/K and 0.01449 ± 0.00068 W/m/K
344.31 K, 191 kPa, Gas, hot wire | 0.01589 ± 0.00079 W/m/K
344.32 K, 191 kPa, Gas, hot wire | 0.01586 ± 0.00079 W/m/K
344.35 K, 169 kPa, Gas, hot wire | 0.01551 ± 0.00074 W/m/K and 0.01555 ± 0.00074 W/m/K
344.38 K, 132 kPa, Gas, hot wire | 0.01516 ± 0.00072 W/m/K
344.38 K, 133 kPa, Gas, hot wire | 0.01519 ± 0.00072 W/m/K
344.43 K, 83 kPa, Gas, hot wire | 0.0148 ± 0.0007 W/m/K
344.44 K, 83 kPa, Gas, hot wire | 0.01478 ± 0.0007 W/m/K
344.47 K, 191 kPa, Gas, hot wire | 0.01601 ± 0.0008 W/m/K and 0.01602 ± 0.0008 W/m/K
344.49 K, 26 kPa, Gas, hot wire | 0.01446 ± 0.00068 W/m/K and 0.01447 ± 0.00068 W/m/K
344.51 K, 169 kPa, Gas, hot wire | 0.01563 ± 0.00075 W/m/K
